# Columns and labels:
# DfrA52 = assay: NADPH oxidation followed at […] nm, nonlinear regression; type: biochemical, Escherichia phage vB_EcoM_BMB16; conditions: 100 uM NADPH; dihydrofolate 5-100 uM; 50 mM Tris-HCl, 50 mM KCl, pH 7.5; ~25 C
# DfrA43 = assay: as above; type: biochemical; conditions: 100 uM NADPH; dihydrofolate 5-100 uM; 50 mM Tris-HCl, 50 mM KCl, pH 7.5; ~25 C
compound,measurement,setting,value
Nc1nc2c(c(=O)[nH]1)N=C(CNc1ccc(C(=O)N[C@@H](CCC(=O)O)C(=O)O)cc1)CN2 [dihydrofolate],Km,DfrA52,167 ± 34.8 µM
same,Km,DfrA43,47.6 ± 21.6 µM

# Source: publication PMC12466917, “Evolutionary selection of trimethoprim-resistant dfrA genes in lytic phages affects phage and host fitness during infection” (Science Advances, 2025)
